{
  "source": "patent US12527760B2",
  "about": "“Synthesis of pro-resolving analogs and compositions therefor” (Nocendra Inc., priority 2019, dated 2026)",
  "key": {"[1]": {"system": "polymorphonuclear neutrophil infiltration", "conditions": "murine peritonitis model, compared with the vehicle control; cited from earlier work"}, "[2]": {"system": "eicosanoid oxido-reductase", "conditions": "in comparison with native lipoxin A4; cited from earlier work"}, "subjects with gingivitis": {"system": "subjects with gingivitis", "assay": "randomized, placebo-controlled, double-blind clinical study of Compound (Vb) oral rinse in gingivitis", "format": "in vivo, humans", "experimental": "A clinical study comprised of 3 groups in a randomized, placebo-controlled, double-blind design with an additional group that received no treatment was performed to evaluate the use of Compound (Vb) on the treatment of gingivitis. Subjects were healthy adults, aged 18 through 65 years, with gingivitis as defined by […] (MGI)≥2.0. The treatment group (Compound (Vb) oral rinse) and the placebo rinse group consisted of 50 subjects each. The no-rinse control group consisted of 27 subjects. These group sizes were planned to allow for a 20% dropout rate.\n(§1) The pH of this solution was 7 or less.\nThe Compound (Vb) oral rinse group received the active agent at a concentration of 1.0 μM in the oral rinse applied once daily (after morning teeth brushing) for 28 days. Thirty-two subjects reported a total of 56 treatment emergent adverse effects (TEAEs), with the greatest percentage of subjects reporting at least 1 TEAE in the Compound (Vb) group (38.0%) followed by the placebo group (20.0%) and the no-rinse control group (11.1%). Overall, 10 subjects reported at least 1 TEAE considered related to study drug, and 5 subjects reported at least one TEAE related to study procedures.\nThe primary outcome of this study was safety, and therefore, all efficacy analyses were considered secondary outcomes. The key secondary efficacy outcomes in this study were Modified Gingival Index (MGI) and BOP."}, "[3]": {"assay": "stability of the methyl ester in the oral rinse formulation over the course of the study", "format": "physicochemical", "conditions": "neutral pH (7 or less)", "text": "as §1\nWithout wishing to be bound by theory, it is believed that […] the pH of the oral rinse formulation increases the stability of the methyl ester forms of these benzo-lipoxin analogs and mimetics, therefore allowing for more efficient delivery of the active compounds (e.g., Compound (Vb), etc.) in these formulations."}, "[4]": {"conditions": "1.0 μM oral rinse once daily for 28 days"}, "[5]": {"conditions": "oral TEAE possibly related to study drug"}},
  "data": [
    {"smiles": "CCCCC[C@@H](O)/C=C/c1ccccc1/C=C/[C@@H](O)[C@@H](O)CCCC(=O)OC", "note": "[Compound (Vb), methyl (5S,6R,E)-5,6-dihydroxy-8-(2-((R,E)-3-hydroxyoct-1-en-1-yl)phenyl)oct-7-enoate]", "values": [
      {"measurement": "inhibition of polymorphonuclear neutrophil infiltration", "setting": "[1]", "result": "approximately 32%"},
      {"measurement": "conversion to inactive forms", "setting": "[2]", "result": "not readily converted to inactive forms"},
      {"measurement": "overall safety and tolerability", "setting": "subjects with gingivitis; [4]", "result": "generally safe and well tolerated"},
      {"measurement": "percentage of subjects reporting at least 1 TEAE", "setting": "subjects with gingivitis; [4]", "result": 38.0, "unit": "%"},
      {"measurement": "subjects reporting oral TEAEs considered possibly related to study drug", "setting": "subjects with gingivitis; [4]", "result": "Four"},
      {"measurement": "subjects with study drug-related TEAEs", "setting": "subjects with gingivitis; [4]", "result": 6, "unit": "subjects"},
      {"measurement": "change in mean MGI", "setting": "subjects with gingivitis; Day 14 and 28, relative to placebo", "result": "clinically important decrease"},
      {"measurement": "BOP", "setting": "subjects with gingivitis; Day 28, versus placebo", "result": "did not result in meaningful differences"},
      {"measurement": "extent of clinical gingivitis", "setting": "subjects with gingivitis; compared with the placebo group", "result": "reduced the extent of clinical gingivitis"},
      {"measurement": "TEAEs leading to study drug discontinuation", "setting": "subjects with gingivitis; human, in vivo", "result": "No TEAEs led to study drug discontinuation"},
      {"measurement": "severity of oral TEAEs", "setting": "subjects with gingivitis; human, in vivo, po", "result": "mild in severity"},
      {"measurement": "subjects reporting an oral disorder", "setting": "subjects with gingivitis; [5]", "result": 1, "unit": "subject"},
      {"measurement": "subjects reporting dry mouth", "setting": "subjects with gingivitis; [5]", "result": 3, "unit": "subjects"},
      {"measurement": "pocket depth reduction", "setting": "subjects with gingivitis; sites with pockets >6 mm, ± SD", "result": "−1.23±0.406", "unit": "mm"},
      {"measurement": "stability of the methyl ester in the formulation", "setting": "[3]", "result": "increase in the free acid form"}
    ]}
  ]
}
